Experimental data taken from article PMC11266932, “Enhanced absorption of prenylated cinnamic acid derivatives from Brazilian green propolis by turmeric in humans and rats” (Food Science & Nutrition, 2024).
Read-outs that look alike come from different tables or passages of the source.

Columns and labels:
[1] = Animal study: plasma concentration and AUC of cinnamic acid derivatives after intragastric BGP with or without each herbal extract; type: in vivo, Wistar/ST rats; settings: rats
Protocol: Wistar/ST rats (male, 7 weeks old) were purchased from Japan SLC (Shizuoka, Japan). […] The rats were quarantined and acclimatized under the above conditions for 1 week and divided into six groups (eight rats/group) according to their average body weight (240–260 g). Each test sample listed in Table 1 was dissolved in 10% propylene glycol (1 mL per rat) and administered intragastrically to the rats after an overnight fasting period with free access to water. […] The collected samples were centrifuged at 1500 g for 10 min at 4°C to separate the plasma and preserved at −80°C until further sample preparation.
(§1) Briefly, 50 μL of plasma was treated with a sulfatase/β‐glucuronidase solution (sulfatase 15 units/sample) in 100 mM sodium acetate and 5 mM ascorbate at 37°C for 1 h. Following the incubation, 850 μL of methanol was added to the samples to stop the deconjugation reaction, after which centrifugation was performed at 2000 g for 10 min at 23 ± 2°C. The supernatant was evaporated under nitrogen gas and then reconstituted in a fixed volume of methanol. The samples were filtered through a 0.22 μm PTFE membrane and then analyzed by LC–MS/MS.
(§2) Briefly, 5 μL of the sample was injected into a reversed‐phase column (Acquity UPLC BEH C18, 2.1 × 100 mm, ID. 1.7 μm; Waters, Milford, MA, USA) held at 30°C. The elution was performed using solvent A (0.1% formic acid) and solvent B (acetonitrile) at a flow rate of 0.3 mL/min. The gradient profiles were as follows: 5% B (0–2 min), 5–95% B (2–22 min), 95% B (22–25 min), and 5% B (25–30 min). Tandem mass spectrometry (MS/MS) was conducted using an ion trap mass spectrometer with a heated electrospray ion source (HESI) in both positive and negative ionization modes (scan range m/z 70–1000). […] External standard curves for cinnamic acid derivatives were generated using eight concentrations of authentic standard solutions (1, 5, 10, 50, 100, 250, 500, and 1000 ng/mL).
(§3) Quantification of cinnamic acid derivatives in the plasma was performed using the Trace Finder software version 4.1 (Thermo Scientific). The plasma concentration versus time data for the analytes obtained from each human and rat were entered into a Microsoft Excel spreadsheet. The area under the plasma concentration–time curve (AUC) was calculated using the linear trapezoidal rule, extending to the last sampling point.

[2] = Clinical trial: plasma concentration and AUC of cinnamic acid derivatives after ingestion of BGP alone or BGP plus herbal extract mixture; type: in vivo; settings: humans, BGP and herbal extracts co-administered; for AUC: plasma 0–24 h, after enzymatic deconjugation, mean ± SD, n = 6; for fold increase of AUC versus BGP administered alone: 0–24 h
Protocol: Six volunteers (three males and three females) completely understood the study protocol and consented to participate in the research. The following exclusion criteria were used for shortlisting participants: past or present medical history (asthma, significant allergies, heart, liver, kidney, and urinary tract disease); prescribed medication; pregnancy; smoking (>20 cigarettes/day); alcohol consumption (>500 mL/day of beer); use of dietary supplements and healthy foods; and participation in other clinical trials. The participants were instructed to refrain from consuming propolis and propolis‐containing foods and beverages during the study period and 1 week prior to the start of the study. After a 12‐h fast, the participants were given a test food comprising the encapsulated BGP powder or a mixture of the BGP powder and herbal extracts in two experimental periods separated by 1 week. […] The collected samples were centrifuged at 1500 g for 3 min at 23 ± 2°C to separate the plasma, which was subsequently preserved at −80°C until further sample preparation.
as §1, §2, §3

[3] = BGP co-administered with turmeric extract

Row | change of AUC versus BGP alone (in words) ([1]; BGP co-administered with gotu kola extract) | change of AUC versus BGP alone (in words) [1, 3] | AUC ([2]; both sexes, human, oral, read-out: AUC) [ng·h/mL] | SMILES | change of plasma concentration versus BGP alone (in words) ([1]; BGP + turmeric extract, at 30 min and 3 h) | fold increase of AUC versus BGP administered alone [2] [fold] | fold increase of plasma concentration versus BGP alone ([1]; BGP + turmeric extract, 30 min after administration) [fold] | fold increase of plasma concentration versus BGP alone ([1]; BGP + turmeric extract, 3 h after administration) [fold] | fold increase of plasma concentration versus BGP alone ([1]; BGP + turmeric extract, 6 h after administration) [fold] | fold increase of AUC versus BGP administered alone [1, 3] [fold] | AUC [2] [ng·h/mL]
1 | tended to increase | tended to increase | 34.5 ± 12.2 | CC(C)=CCc1cc(C=CC(=O)O)cc(O)c1O [3,4‐dihydroxy‐5‐prenylcinnamic acid] | significant increases or increasing trends | 1.8 |  |  |  |  | 
2 |  |  |  | CC(C)=CCc1cc(/C=C/C(=O)O)cc(C/C=C(\C)CO)c1O [capillartemisin A] |  | 1.6 | 2.2 | 1.7 | 3.0 | 1.7 | 57.0 ± 16.5
